Laboratory results: PubChem BioAssay AID248 (DTP/NCI, 2004)
Values joined by “and” are separate entries in the source; they are usually repeats but may differ in a detail not shown here. Equal entries are not always repeated. Inconclusive results and toxic doses are left out.

Tested on: L1210 leukemia ip in BDF1 mice, survival T/C
Assay: NCI In Vivo Anticancer Drug Screen. Data for tumor model L1210 Leukemia (intraperitoneal) in B6D2F1 (BDF1) mice
Settings: endpoint: mean survival time, higher = longer survival
In short: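 Tumor cells were implanted, animals were treated, and survival was followed. The result divides the treated measurement by the vehicle-control measurement.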

N[C@@H](Cc1ccc(N(CCCl)CCCl)cc1)C(=O)O
T/C (dose: 0.1 mg/kg/injection, schedule: Q01DX015 (ip), vehicle: carboxymethylcellulose (CMC)): 101 % of control and 102 % of control | T/C (dose: 0.13 mg/kg/injection, schedule: Q01DX009 (ip), vehicle: Klucel (hydroxypropylcellulose) (HPC)): 110 % of control | T/C (dose: 0.2 mg/kg/injection, schedule: Q01DX015 (ip), vehicle: carboxymethylcellulose (CMC)): 104 % of control and 111 % of control | T/C (dose: 0.25 mg/kg/injection, schedule: Q01DX009 (ip), vehicle: Klucel (hydroxypropylcellulose) (HPC)): 105 % of control and 115 % of control | T/C (dose: 0.39 mg/kg/injection, schedule: Q01DX001 (ip), vehicle: carboxymethylcellulose (CMC)): 102 % of control | T/C (dose: 0.4 mg/kg/injection, schedule: Q01DX015 (ip), vehicle: carboxymethylcellulose (CMC)): 109 % of control and 117 % of control | T/C (dose: 0.45 mg/kg/injection, schedule: Q04DX002 (ip), vehicle: Klucel (hydroxypropylcellulose) (HPC)): 96 % of control | T/C (dose: 0.5 mg/kg/injection, schedule: Q01DX005 (ip), vehicle: saline): 111 % of control | T/C (dose: 0.5 mg/kg/injection, schedule: Q01DX009 (ip), vehicle: Klucel (hydroxypropylcellulose) (HPC)): 115 % of control and 116 % of control | T/C (dose: 0.5 mg/kg/injection, schedule: Q01DX009 (ip), vehicle: saline): 120 % of control | T/C (dose: 0.5 mg/kg/injection, schedule: Q03DX Z (ip), vehicle: carboxymethylcellulose (CMC)): 113 % of control | T/C (dose: 0.5 mg/kg/injection, schedule: Q03HX008 (ip), vehicle: saline): 114 % of control | T/C (dose: 0.5 mg/kg/injection, schedule: Q03HX016 (ip), vehicle: saline): 124 % of control | T/C (dose: 0.78 mg/kg/injection, schedule: Q01DX001 (ip), vehicle: carboxymethylcellulose (CMC)): 108 % of control | T/C (dose: 0.8 mg/kg/injection, schedule: Q01DX015 (ip), vehicle: carboxymethylcellulose (CMC)): 121 % of control | T/C (dose: 0.9 mg/kg/injection, schedule: Q04DX002 (ip), vehicle: Klucel (hydroxypropylcellulose) (HPC)): 104 % of control and 115 % of control | T/C (dose: 1.0 mg/kg/injection, schedule: Q01DX005 (ip), vehicle: saline): 123 % of control | T/C (dose: 1.0 mg/kg/injection, schedule: Q01DX006 (iv), vehicle: carboxymethylcellulose (CMC)): 107 % of control | T/C (dose: 1.0 mg/kg/injection, schedule: Q01DX009 (oral), vehicle: saline): 111 % of control | T/C (dose: 1.0 mg/kg/injection, schedule: Q01DX Z (im), vehicle: carboxymethylcellulose (CMC)): 96 % of control | T/C (dose: 1.0 mg/kg/injection, schedule: Q01DX Z (ip), vehicle: carboxymethylcellulose (CMC)): 94 % of control | T/C (dose: 1.0 mg/kg/injection, schedule: Q01DX Z (sc), vehicle: carboxymethylcellulose (CMC)): 94 % of control | T/C (dose: 1.0 mg/kg/injection, schedule: Q03HX008 (ip), vehicle: saline): 119 % of control | T/C (dose: 1.0 mg/kg/injection, schedule: Q#A X Z (ip), vehicle: carboxymethylcellulose (CMC)): 94 % of control | T/C (dose: 1.13 mg/kg/injection, schedule: Q01DX001 (ip), vehicle: carboxymethylcellulose (CMC)): 111 % of control and 121 % of control | T/C (dose: 1.56 mg/kg/injection, schedule: Q01DX001 (ip), vehicle: saline): 104 % of control and 107 % of control | T/C (dose: 1.6 mg/kg/injection, schedule: Q01DX015 (ip), vehicle: carboxymethylcellulose (CMC)): 154 % of control | T/C (dose: 1.8 mg/kg/injection, schedule: Q04DX002 (ip), vehicle: Klucel (hydroxypropylcellulose) (HPC)): 117 % of control and 118 % of control | T/C (dose: 2.0 mg/kg/injection, schedule: Q01DX006 (iv), vehicle: carboxymethylcellulose (CMC)): 110 % of control | T/C (dose: 2.0 mg/kg/injection, schedule: Q01DX Z (im), vehicle: carboxymethylcellulose (CMC)): 98 % of control | T/C (dose: 2.0 mg/kg/injection, schedule: Q01DX Z (ip), vehicle: carboxymethylcellulose (CMC)): 93 % of control | T/C (dose: 2.0 mg/kg/injection, schedule: Q01DX Z (oral), vehicle: carboxymethylcellulose (CMC)): 115 % of control | T/C (dose: 2.0 mg/kg/injection, schedule: Q01DX Z (sc), vehicle: carboxymethylcellulose (CMC)): 104 % of control | T/C (dose: 2.0 mg/kg/injection, schedule: Q03DX Z (ip), vehicle: carboxymethylcellulose (CMC)): 153 % of control | T/C (dose: 2.16 mg/kg/injection, schedule: Q04DX003 (ip), vehicle: saline): 151 % of control | T/C (dose: 2.37 mg/kg/injection, schedule: Q01DX009 (ip), vehicle: other): 150 % of control | T/C (dose: 3.0 mg/kg/injection, schedule: Q03DX Z (ip), vehicle: carboxymethylcellulose (CMC)): 115 % of control | T/C (dose: 3.12 mg/kg/injection, schedule: Q01DX001 (ip), vehicle: saline): 109 % of control and 112 % of control | T/C (dose: 3.6 mg/kg/injection, schedule: Q03HX024 (ip), vehicle: other): 104 % of control | T/C (dose: 4.0 mg/kg/injection, schedule: Q01DX001 (ip), vehicle: saline): 124 % of control | T/C (dose: 4.0 mg/kg/injection, schedule: Q01DX001 (sc), vehicle: saline): 121 % of control | T/C (dose: 4.0 mg/kg/injection, schedule: Q01DX006 (iv), vehicle: carboxymethylcellulose (CMC)): 102 % of control | T/C (dose: 4.0 mg/kg/injection, schedule: Q01DX009 (oral), vehicle: saline): 151 % of control | T/C (dose: 4.0 mg/kg/injection, schedule: Q01DX Z (im), vehicle: carboxymethylcellulose (CMC)): 104 % of control | T/C (dose: 4.0 mg/kg/injection, schedule: Q01DX Z (ip), vehicle: carboxymethylcellulose (CMC)): 98 % of control | T/C (dose: 4.0 mg/kg/injection, schedule: Q01DX Z (oral), vehicle: carboxymethylcellulose (CMC)): 104 % of control | T/C (dose: 4.0 mg/kg/injection, schedule: Q01DX Z (sc), vehicle: carboxymethylcellulose (CMC)): 102 % of control | T/C (dose: 4.0 mg/kg/injection, schedule: Q03HX024 (ip), vehicle: saline): 122 % of control | T/C (dose: 4.0 mg/kg/injection, schedule: Q#A X Z (ip), vehicle: carboxymethylcellulose (CMC)): 110 % of control | T/C (dose: 6.0 mg/kg/injection, schedule: Q03DX Z (ip), vehicle: carboxymethylcellulose (CMC)): 106 % of control | T/C (dose: 6.25 mg/kg/injection, schedule: Q01DX001 (ip), vehicle: saline): 120 % of control | T/C (dose: 7.0 mg/kg/injection, schedule: Q01DX001 (ip), vehicle: carboxymethylcellulose (CMC)): 110 % of control and 115 % of control | T/C (dose: 7.0 mg/kg/injection, schedule: Q07DX Z (ip), vehicle: carboxymethylcellulose (CMC)): 107 % of control | T/C (dose: 7.5 mg/kg/injection, schedule: Q01DX009 (ip), vehicle: saline): 100 % of control and 107 % of control | T/C (dose: 8.0 mg/kg/injection, schedule: Q01DX001 (oral), vehicle: saline): 123 % of control | T/C (dose: 8.0 mg/kg/injection, schedule: Q01DX001 (sc), vehicle: saline): 117 % of control | T/C (dose: 8.0 mg/kg/injection, schedule: Q01DX005 (ip), vehicle: saline): 154 % of control | T/C (dose: 8.0 mg/kg/injection, schedule: Q01DX006 (iv), vehicle: carboxymethylcellulose (CMC)): 104 % of control | T/C (dose: 8.0 mg/kg/injection, schedule: Q01DX009 (ip), vehicle: Klucel (hydroxypropylcellulose) (HPC)): 121 % of control | T/C (dose: 8.0 mg/kg/injection, schedule: Q01DX009 (ip), vehicle: saline): 114 % of control | T/C (dose: 8.0 mg/kg/injection, schedule: Q01DX009 (oral), vehicle: saline): 112 % of control | T/C (dose: 8.0 mg/kg/injection, schedule: Q01DX009 (sc), vehicle: saline): 95 % of control | T/C (dose: 8.0 mg/kg/injection, schedule: Q01DX Z (im), vehicle: carboxymethylcellulose (CMC)): 98 % of control | T/C (dose: 8.0 mg/kg/injection, schedule: Q01DX Z (oral), vehicle: carboxymethylcellulose (CMC)): 104 % of control | T/C (dose: 8.0 mg/kg/injection, schedule: Q01DX Z (sc), vehicle: carboxymethylcellulose (CMC)): 96 % of control | T/C (dose: 12.0 mg/kg/injection, schedule: Q03DX Z (ip), vehicle: carboxymethylcellulose (CMC)): 105 % of control | T/C (dose: 12.5 mg/kg/injection, schedule: Q01DX Z (ip), vehicle: carboxymethylcellulose (CMC)): 102 % of control | T/C (dose: 14.0 mg/kg/injection, schedule: Q01DX001 (ip), vehicle: carboxymethylcellulose (CMC)): 115 % of control and 117 % of control | T/C (dose: 14.0 mg/kg/injection, schedule: Q07DX Z (ip), vehicle: carboxymethylcellulose (CMC)): 98 % of control | T/C (dose: 16.0 mg/kg/injection, schedule: Q01DX Z (ip), vehicle: carboxymethylcellulose (CMC)): 106 % of control | T/C (dose: 16.0 mg/kg/injection, schedule: Q01DX Z (oral), vehicle: carboxymethylcellulose (CMC)): 102 % of control | T/C (dose: 16.7 mg/kg/injection, schedule: Q01DX001 (ip), vehicle: saline): 123 % of control | T/C (dose: 24.0 mg/kg/injection, schedule: Q03DX Z (ip), vehicle: carboxymethylcellulose (CMC)): 105 % of control | T/C (dose: 25.0 mg/kg/injection, schedule: Q01DX001 (ip), vehicle: saline): 154 % of control | T/C (dose: 28.0 mg/kg/injection, schedule: Q01DX001 (ip), vehicle: carboxymethylcellulose (CMC)): 107 % of control | T/C (dose: 28.0 mg/kg/injection, schedule: Q07DX Z (ip), vehicle: carboxymethylcellulose (CMC)): 94 % of control | T/C (dose: 29.0 mg/kg/injection, schedule: Q04DX003 (ip), vehicle: other): 95 % of control | T/C (dose: 30.0 mg/kg/injection, schedule: Q01DX001 (ip), vehicle: carboxymethylcellulose (CMC)): 153 % of control | T/C (dose: 32.0 mg/kg/injection, schedule: Q01DX001 (ip), vehicle: saline): 121 % of control | T/C (dose: 32.0 mg/kg/injection, schedule: Q01DX001 (oral), vehicle: saline): 93 % of control | T/C (dose: 32.0 mg/kg/injection, schedule: Q01DX Z (oral), vehicle: carboxymethylcellulose (CMC)): 104 % of control | T/C (dose: 56.0 mg/kg/injection, schedule: Q01DX001 (ip), vehicle: carboxymethylcellulose (CMC)): 107 % of control and 117 % of control | T/C (dose: 56.0 mg/kg/injection, schedule: Q07DX Z (ip), vehicle: carboxymethylcellulose (CMC)): 96 % of control
